The values that follow come from PubChem BioAssay (NCI).

Test systems include OVCAR-5 ovarian; NCI-H23 lung; HCT-15 colon; HCC-2998 colon; SF-295 CNS; K-562 leukemia; 786-0 renal; OVCAR-3 ovarian; SF-268 CNS; HOP-62 NSCLC; HCT-116 colon; SK-MEL-28 melanoma; UACC-62 melanoma; A549 NSCLC; HS 578T breast; SK-OV-3 ovarian; OVCAR-8 ovarian; RXF 393 renal; MALME-3M melanoma.
What all share (test): DTP human tumour cell line panel, 48 h

Molecules are shown by their SMILES.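 Compound exposure: 48 hours, 5 concentrations, 96-well plates. TGI: concentration producing complete growth inhibition.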 Bounds are passed on as bounds.

Consider `Cc1ccc2c(c1)C=CC1(O2)N(c2ccccc2)C(=S)OC1(C)C` (stereo unspecified), for which the TGI in the assay with OVCAR-5 ovarian, in the assay with NCI-H23 lung, in the assay on HCT-15 colon, in the assay with HCC-2998 colon, in the assay on SF-295 CNS and with K-562 leukemia was more than 100 µM each time. Further, the TGI with 786-0 renal, in the assay with OVCAR-3 ovarian, with SF-268 CNS, in the assay with HOP-62 NSCLC, with HCT-116 colon and in the assay with SK-MEL-28 melanoma was more than 100 µM in each case. Also, the TGI with UACC-62 melanoma, in the assay with A549 NSCLC, in the assay with HS 578T breast, with SK-OV-3 ovarian, in the assay with OVCAR-8 ovarian and in the assay on RXF 393 renal was more than 100 µM each time.

As for `O=c1oc2ccccc2c(O)c1C(c1cccc(C(c2c(O)c3ccccc3oc2=O)c2c(O)c3ccccc3oc2=O)c1)c1c(O)c2ccccc2oc1=O`, the concentration for total growth inhibition (TGI) (as a rule, the concentration giving total growth inhibition) in the assay on OVCAR-5 ovarian is more than 100 µM; in the assay with NCI-H23 lung, more than 100 µM; in the assay on HCT-15 colon it was more than 100 µM; in the assay on HCC-2998 colon, 46.2 µM; in the assay on SF-295 CNS, more than 100 µM; with K-562 leukemia, 53.5 µM. In addition, the TGI with 786-0 renal is 45.1 µM; with OVCAR-3 ovarian, more than 100 µM; in the assay on SF-268 CNS, more than 100 µM; with HOP-62 NSCLC it was more than 100 µM; with HCT-116 colon, more than 100 µM; in the assay with SK-MEL-28 melanoma, more than 100 µM. The TGI in the assay on UACC-62 melanoma was 95.7 µM; with A549 NSCLC it was more than 100 µM; in the assay with HS 578T breast, more than 100 µM; with SK-OV-3 ovarian, more than 100 µM; with OVCAR-8 ovarian, more than 100 µM; with RXF 393 renal, more than 100 µM.

For the molecule `O=C(Cn1c2c(c3ccccc31)CCCC2)N1CCCCC1`, the TGI in the assay on OVCAR-5 ovarian, with NCI-H23 lung, with HCT-15 colon, with HCC-2998 colon, with SF-295 CNS and in the assay on 786-0 renal was more than 100 µM each time. The total growth inhibition concentration (TGI) with OVCAR-3 ovarian, with MALME-3M melanoma, in the assay with HOP-62 NSCLC, in the assay on HCT-116 colon, in the assay on SK-MEL-28 melanoma and with UACC-62 melanoma was more than 100 µM in each case. Besides, the TGI with A549 NSCLC, with HS 578T breast, with SK-OV-3 ovarian and in the assay on OVCAR-8 ovarian was more than 100 µM in each case.

Consider `C/C(O)=C(\C=NC(=S)c1cccnc1)C(=O)Nc1ccccc1C`, for which the total growth inhibition concentration (TGI) in the assay with OVCAR-5 ovarian, in the assay on NCI-H23 lung, in the assay on HCT-15 colon, with HCC-2998 colon, in the assay on SF-295 CNS and in the assay with K-562 leukemia was more than 100 µM each time. Also, the TGI in the assay on 786-0 renal, with OVCAR-3 ovarian, in the assay on SF-268 CNS, in the assay on HOP-62 NSCLC, in the assay with HCT-116 colon and in the assay with SK-MEL-28 melanoma was more than 100 µM throughout. Moreover, the TGI in the assay on UACC-62 melanoma, with A549 NSCLC, with HS 578T breast, in the assay with SK-OV-3 ovarian, with OVCAR-8 ovarian and in the assay on RXF 393 renal was more than 100 µM throughout.

For `O=C(/C=C/c1ccccc1)c1cc(C(=O)/C=C/c2ccccc2)c(O)cc1O`, the TGI with OVCAR-5 ovarian, with NCI-H23 lung, with HCT-15 colon, with HCC-2998 colon, in the assay with 786-0 renal and in the assay with MALME-3M melanoma was more than 100 µM in each case. For the same molecule, the TGI in the assay on HOP-62 NSCLC is more than 100 µM; with HCT-116 colon it was more than 100 µM; in the assay with SK-MEL-28 melanoma, more than 100 µM; in the assay with UACC-62 melanoma, more than 100 µM; with A549 NSCLC, more than 100 µM; in the assay on HS 578T breast it was 83.7 µM. Moreover, the TGI in the assay on SK-OV-3 ovarian and with OVCAR-8 ovarian was more than 100 µM each time.

Regarding `O=C(O/N=c1/ccc(=O)/c(=N\OC(=O)c2ccccc2)c1=O)c1ccccc1`, the TGI with OVCAR-5 ovarian, with NCI-H23 lung, in the assay on HCT-15 colon, in the assay with HCC-2998 colon, with SF-295 CNS and in the assay on K-562 leukemia was more than 100 µM each time. Besides, the TGI in the assay on 786-0 renal, with OVCAR-3 ovarian, in the assay with SF-268 CNS, in the assay with HOP-62 NSCLC, in the assay with HCT-116 colon and with SK-MEL-28 melanoma was more than 100 µM throughout. The TGI with A549 NSCLC, in the assay with HS 578T breast, with SK-OV-3 ovarian, in the assay with OVCAR-8 ovarian and in the assay with RXF 393 renal was more than 100 µM in each case.

Consider `O=C1C=C(NCC(c2ccccc2)c2ccccc2)C(=O)c2ncccc21`, for which the TGI amounted to 10.1 µM in the assay on OVCAR-5 ovarian; 5.76 µM in the assay with NCI-H23 lung; 1.34 µM in the assay on HCT-15 colon; 2.12 µM in the assay on HCC-2998 colon; 3.51 µM with SF-295 CNS; 4.1 µM in the assay on K-562 leukemia. Further, the TGI in the assay with 786-0 renal is 15.3 µM; in the assay on OVCAR-3 ovarian, 3.32 µM; in the assay with SF-268 CNS, 13.8 µM; in the assay on MALME-3M melanoma, 3.4 µM; in the assay with HOP-62 NSCLC, 4.02 µM; in the assay with HCT-116 colon, more than 23.7 µM. Besides, the concentration for total growth inhibition (TGI) with SK-MEL-28 melanoma came out at 10 µM; in the assay with UACC-62 melanoma, 2.9 µM; with A549 NSCLC, 1.87 µM; with HS 578T breast, 12.3 µM; in the assay on SK-OV-3 ovarian it was 47.6 µM; in the assay with OVCAR-8 ovarian it was 11.5 µM.

Consider `O=C(Cn1c(C(=O)/C=C/c2ccc(Cl)cc2)nc2ccccc21)c1ccc(Cl)cc1`, for which the TGI in the assay with OVCAR-5 ovarian is 64.1 µM; with NCI-H23 lung, 77.6 µM; with HCT-15 colon, 51.8 µM; in the assay on HCC-2998 colon it was 32.4 µM; in the assay with K-562 leukemia, more than 100 µM; in the assay with 786-0 renal, 66.8 µM. Besides, the total growth inhibition concentration (TGI) with OVCAR-3 ovarian is 22.9 µM; in the assay with SF-268 CNS it was more than 100 µM; in the assay with MALME-3M melanoma, 52.6 µM; in the assay with HOP-62 NSCLC, 41.6 µM; in the assay with HCT-116 colon it was 26.2 µM; with SK-MEL-28 melanoma it was 62.6 µM. The TGI with UACC-62 melanoma was 33.7 µM; in the assay on A549 NSCLC it was 71.5 µM; in the assay with HS 578T breast it was 29.1 µM; in the assay on SK-OV-3 ovarian, more than 100 µM; with RXF 393 renal it was 32.6 µM.
